In general, CC50 refers to the concentration that lowers cell viability or growth by half. A high value points to better tolerance by the cells.

Data on 1 molecule can be found in patent publication US12275734B1, “Pleuromutilin onium salt derivative containing a 3H-imidazo[4,5-c]pyridine side chain, and a preparation method and application thereof” (SHAANXI UNIVERSITY OF SCIENCE AND TECHNOLOGY, priority 2024, dated 2025).

The subject of one data set is A. baumannii ATCC 19606. In words: MIC, broth microdilution. The format is cell-based. As to conditions: Acinetobacter baumannii, ATCC19606, read-out: Minimum inhibitory concentration A.b.^f. The method, then: (§1) The minimum inhibitory concentration of 3H-imidazo[4,5-C]pyridine pleuromutilin onium salt derivatives against the tested pathogenic microorganisms were determined by broth microdilution method, with valnemulin and retapamulin as positive controls.
(§2) The experimental strains included resistant Gram-positive bacteria: Methicillin-resistant S. aureus ATCC 33591; Methicillin-resistant S. aureus ATCC 43300; S. aureus ATCC 29213; Methicillin-resistant S. epidermidis ATCC 51625. Resistant Gram-negative bacteria: A. baumannii ATCC 19606; S. enterica ATCC14028; E. coli ATCC 25922; E. coli CMCC 44103. 9 clinically isolated resistant strains: MRSA-171; MRSA-575; MRSA-206; MRSA-222; MRSA-596; VRE-80; MDR-PA-126; MDR-KP-893; CR-AB-882.
(§3) (1) Preparation of MHB medium: Weigh 18.0 g of MHB medium pre-made powder, add it to 1 L of distilled water, heat and boil until completely dissolved, divide it into conical bottles, sterilize it by high pressure at 121° C. for 15 minutes, and set aside.
(§4) (2) Cultivate the experimental strain to the logarithmic growth phase: Under sterile conditions, inoculate the experimental strain into fresh MHB medium and culture it in a 37° C. constant temperature and humidity incubator for 16-24 hours. Adjust the bacterial solution concentration to 1.5×10^8 CFU/mL and then dilute it 200 times for later use.
(§5) (3) Preparation of storage solution: Weigh the sample to be tested, dissolve it in 1% DMSO solution, and prepare a storage solution with a concentration of 2560 μg/mL; weigh the positive control, dissolve it in sterile distilled water, and prepare a storage solution with a concentration of 2560 μg/mL.
(§6) (4) Preparation of bacterial suspension: Under sterile conditions, the experimental strain cultured to the logarithmic growth phase was calibrated to a 0.5 McFarland unit turbidity standard using MHB medium and then diluted at a ratio of 1:200 to prepare a bacterial suspension with a concentration of 5×10^5 CFU/mL for later use.
(§7) (5) Determination of MIC by two-fold microdilution method: Take a sterile 96-well plate, add 10 μL of the test compound at a concentration of 2560 μg/mL, and perform serial dilutions by the two-fold dilution method. At the same time, set up a negative control group without drug. Then add 190 μL of diluted bacterial solution to each well, so that the final bacterial solution concentration in each well is 5×10^5 CFU/mL, and incubate in a 37° C. constant temperature and humidity chamber for 24 hours.

For a further data set, the system named is E. coli ATCC 25922. In words: MIC, broth microdilution. The format is cell-based. The following applies: Escherichia coli, ATCC25922, read-out: Minimum inhibitory concentration E.c.^h. The method, then: as §1, §2, §3, §4, §5, §6, §7
The next data set relates to E.coli CMCC 44103. In words: MIC, broth microdilution. The format is cell-based. As to conditions: Escherichia coli, CMCC44103, read-out: Minimum inhibitory concentration E.c.^i. The method, then:
as §1, §2, §3, §4, §5, §6, §7
For orientation: In broth dilution the organism is exposed to a series of concentrations in liquid medium.

For data set [1], the system named is Methicillin-resistant S. aureus ATCC 33591. In words: MIC, broth microdilution. The following applies: Staphylococcus aureus, ATCC 33591 / MRSA, read-out: Minimum inhibitory concentration MRSA^b. The format is cell-based. The method, then:
as §1, §2, §3, §4, §5, §6, §7

The test system of data set [2] is Methicillin-resistant S. aureus ATCC 43300. In words: MIC, broth microdilution. The format is cell-based. As to conditions: Staphylococcus aureus, ATCC 43300 / MRSA, read-out: Minimum inhibitory concentration MRSA^c. The method, then: as §1, §2, §3, §4, §5, §6, §7
Data set [3] deals with Methicillin-resistant S. epidermidis ATCC 51625. In words: MIC, broth microdilution. The format is cell-based. As to conditions: Staphylococcus epidermidis, ATCC 51625 / MRSE, read-out: Minimum inhibitory concentration MRSE^e. The method, then: as §1, §2, §3, §4, §5, §6, §7
The test system of the next data set is S. aureus ATCC 29213. The data set can be described thus: MIC, broth microdilution. The following applies: Staphylococcus aureus, ATCC29213, read-out: Minimum inhibitory concentration S.a.^d. The format is cell-based. On the procedure: as §1, §2, §3, §4, §5, §6, §7
The next data set relates to S. enterica ATCC14028. The data set can be described thus: MIC, broth microdilution. The format is cell-based. As to conditions: Salmonella enterica, ATCC14028, read-out: Minimum inhibitory concentration S.e.^g. The method, then: as §1, §2, §3, §4, §5, §6, §7
The next data set has as its system A549 Cells. The data set can be described thus: Cytotoxicity, Cell Counting Kit-8. The format is cell-based. As to conditions: human, 24 h. The method, then: (§8) Cell Counting Kit-8 was used to evaluate the cytotoxicity of the compounds.
(§9) (4) Cell culture: HepG2, HEK293 and A549 cells were evenly dispersed in culture medium, seeded into 96-well plates, and cultured under appropriate environmental conditions to keep the cells completely attached to the well walls.
(§10) (5) Compound treatment: Add different concentrations of compounds I-8 and I-9 to each well (the concentrations are 0.78, 1.56, 3.13, 6.25, 12.5, 25, 50 and 100 μM, respectively, and perform 6 parallel experiments). Set up a blank control group and a normal control group. After incubation for 24 hours, observe the cell condition, which observed under a microscope.
(§11) (6) CCK-8 solution treatment: Add CCK-8 solution to each well and incubate for 4 hours to allow it to react with the cells.
(§12) (7) Absorbance determination: Use a full-wavelength scanning multifunctional reader, place the 96-well plate in the instrument, oscillate to mix to make the color evenly distributed, and measure the absorbance value at 490 nm.
(§13) (8) Data analysis: Based on the measured absorbance values, the cell survival rate at different concentrations can be calculated. The median cytotoxic concentration was used to evaluate the cytotoxicity of the compound to A549, HEK293 and HepG2 cells.
In general terms: Tetrazolium assays rely on reduction of a dye to a coloured formazan, in cell work by metabolically active cells.

A further data set deals with HEK293 Cells. The data set can be described thus: Cytotoxicity, Cell Counting Kit-8. The following applies: human, 24 h. The format is cell-based. The method, then: as §8, §9, §10, §11, §12, §13
Another data set has as its system HepG2 Cells. The data set can be described thus: Cytotoxicity, Cell Counting Kit-8. The format is cell-based. As to conditions: human, 24 h. The method, then: as §8, §9, §10, §11, §12, §13
For data set [4], the system named is Staphylococcus aureus (MRSA, ATCC 33591). The data set can be described thus: Mouse MRSA systemic infection model, survival rate. The following applies: MRSA-infected mice, 5, 10, 20 mg/kg single intraperitoneal injection 1 hour after infection, 7-day survival. The format is in vivo. On the procedure: (§14) Establishment of a mouse model of MRSA systemic infection
(1) Solution preparation and bacterial activation: Reference Example 15.
(§15) (2) Pretreatment: All mice received cyclophosphamide treatment, with the first intraperitoneal injection of 150 mg/kg cyclophosphamide 4 days before infection and the second intraperitoneal injection of 100 mg/kg cyclophosphamide 1 day before infection.
(3) Control group treatment: Mice in the blank control group received intraperitoneal injection of 0.9% saline.
(4) Infection process: Mice were anesthetized with isoflurane and infected by intraperitoneal injection of Staphylococcus aureus (MRSA, ATCC 33591) at a concentration of 10^7 CFU/mL.
(1) Experimental groups: The doses of compound i and valnemulin were 5, 10, and 20 mg/kg, respectively (the solvent was dimethyl sulfoxide: Tween-80: sterile water=1:0.5:9.5);
A model control group (administered with a solvent after infection with bacteria) and a blank control group (administered with a solvent only without infection with bacteria) were set up, with 10 mice in each group, half of which were male and half were female.
(2) Time point: Intraperitoneal injection was performed in the experimental group mice at 1 hour after infection.
(3) Therapeutic dose: The mice in the experimental groups received intraperitoneal injection of 0.5 mL of compound i and valnemulin at different concentrations. […]

Data set [5] has the same test system. The data set can be described thus: Mouse MRSA systemic infection model, H&E tissue sections. As to conditions: MRSA-infected mice. The format is in vivo. The method, then:
as §14, §15
(4) Infection process: Mice were anesthetized with isoflurane and infected by intraperitoneal injection of Staphylococcus aureus (MRSA, ATCC 33591) at a concentration of 10^7 CFU/mL. […]
(2) Processing: • (a) Time point: At the first hour after infection, mice in the experimental group received intraperitoneal injection of 0.5 mL of compounds of different concentrations, while mice in the control group received the same volume of solvent. • (b) Treatment time: […]
Part II: The samples were fixed with 10% formalin buffer, then embedded in paraffin and sectioned. The sections were stained with hematoxylin and eosin (H&E) and then examined under an optical microscope.

[6] abbreviates: 5 mg/kg compound i, intraperitoneal.

≈ marks a conversion by molar mass, not a printed value.

`C=C[C@]1(C)C[C@@H](OC(=O)CSC(C)(C)CNC(=O)[C@H](N)C(C)C)[C@]2(C)[C@H](C)CC[C@]3(CCC(=O)[C@H]32)[C@@H](C)[C@@H]1O` [Valnemulin, reference compound]: the MIC stood at 2 µg/mL (≈ 3.54 µM) in the data set on A. baumannii ATCC 19606; 16 µg/mL (≈ 28.3 µM) in the data set with E. coli ATCC 25922; 64 µg/mL (≈ 113 µM) in the data set with E.coli CMCC 44103; 64 µg/mL (≈ 113 µM) in [1]; 8 µg/mL (≈ 14.2 µM) in data set [2]; 64 µg/mL (≈ 113 µM) in [3]. The figures for the MIC in the data set with S. aureus ATCC 29213 and in the data set on S. enterica ATCC14028 were 4 µg/mL (≈ 7.08 µM) and 64 µg/mL (≈ 113 µM), respectively. Further, the CC50 worked out at 53.7 µM in the data set on A549 Cells, 65.4 µM in the data set on HEK293 Cells and 77.3 µM in the data set on HepG2 Cells. For the same molecule, the “survival rate of mice” value in [4] was “improved”. In addition, the “kidney H&E histology” value in data set [5] (setting [6]) is reported as “inflammatory cell infiltration was still observed”. Moreover, the “liver H&E histology” value in data set [5] (setting [6]) was “still had inflammatory cell infiltration”. Further, the “lung H&E histology” value in data set [5] (setting [6]) is “alleviated, but they still did not return to normal”. In addition, the “spleen H&E histology” value in data set [5] (5 mg/kg, after 7 days of treatment) was “immune response was weakened”.
